# Molecular target: T1, RING1B-BMI1 (Homo sapiens, UniProt Q99496)
# T1 sequence (Q99496 1-336): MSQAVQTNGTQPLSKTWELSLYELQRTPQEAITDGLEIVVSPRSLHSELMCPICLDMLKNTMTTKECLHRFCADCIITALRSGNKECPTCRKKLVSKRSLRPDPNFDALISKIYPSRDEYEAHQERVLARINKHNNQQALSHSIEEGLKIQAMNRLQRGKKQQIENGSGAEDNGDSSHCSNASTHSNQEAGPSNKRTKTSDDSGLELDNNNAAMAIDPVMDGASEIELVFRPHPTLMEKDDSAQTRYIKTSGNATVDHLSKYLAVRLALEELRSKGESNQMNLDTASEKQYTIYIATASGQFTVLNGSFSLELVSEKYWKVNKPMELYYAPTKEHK
# T1 sequence (P35226 1-326 partner): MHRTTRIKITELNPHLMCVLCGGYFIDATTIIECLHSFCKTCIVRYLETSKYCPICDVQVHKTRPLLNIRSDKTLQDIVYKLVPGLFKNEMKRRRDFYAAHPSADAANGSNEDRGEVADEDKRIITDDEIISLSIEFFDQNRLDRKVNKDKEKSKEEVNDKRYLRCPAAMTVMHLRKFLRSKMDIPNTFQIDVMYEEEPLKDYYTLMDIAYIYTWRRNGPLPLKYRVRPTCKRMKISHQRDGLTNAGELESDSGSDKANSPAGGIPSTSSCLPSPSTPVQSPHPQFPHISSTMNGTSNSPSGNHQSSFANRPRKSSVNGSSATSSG
# Assay: KD classes of Table A (direct binding to Ring1B-Bmi1)
# Conditions: class given in Table A
row,SMILES,Kd [µM]
1,Cc1cccc(-c2ccc(C(=O)O)[nH]2)c1 [compound 128],> 100
2,CC(C)c1c(-c2cc(F)cc3[nH]ccc23)[nH]c(C(=O)O)c1-c1ccnc2[nH]c(-c3cc[nH]n3)cc12 [compound 249],< 20
3,Cc1cc2c(-c3c(C(=O)O)[nH]c(-c4cc(F)cc5[nH]ccc45)c3C(C)C)ccnc2[nH]1 [compound 207],< 20
4,CC(C)c1c(-c2cc(F)cc3[nH]ccc23)[nH]c(C(=O)O)c1-c1cccc2[nH]c(-c3ccno3)cc12 [compound 225],< 20
5,CCCCc1c(-c2cccc3[nH]ccc23)[nH]c(C(=O)O)c1-c1ccccc1Cl [compound 162],> 100
6,CC(C)c1c(-c2cc(F)cc3[nH]ccc23)[nH]c(C(=O)O)c1-c1c(C(F)(F)F)cnc2[nH]ccc12 [compound 248],< 20
7,O=C(O)c1ccc(-c2ccccc2O)[nH]1 [compound 130],> 100
8,CC(C)c1c(-c2cc(F)cc3[nH]ccc23)[nH]c(C(=O)O)c1-c1cccc2c1ccn2CS(C)(=O)=O [compound 264],< 20
9,CCc1c(-c2cccc3[nH]ccc23)[nH]c(C(=O)O)c1-c1ccc(-c2ccccc2)cc1 [compound 106],> 100
10,CC(C)c1c(-c2cc(F)cc3[nH]ccc23)[nH]c(C(=O)O)c1-c1ccc2c3c1ccn3CCO2 [compound 213],< 20
11,CC(C)c1c(-c2cccc3[nH]ccc23)[nH]c(C(=O)O)c1-c1cc([N+](=O)[O-])c(O)cc1Cl [compound 4],< 20
12,CCc1c(-c2cccc3[nH]ccc23)[nH]c(C(=O)O)c1-c1cc(N)ccc1Cl [compound 80],20 to 50
13,CCc1c(-c2ccc(C)c3[nH]ccc23)[nH]c(C(=O)O)c1-c1cccc2[nH]ccc12 [compound 22],< 20
14,CCc1c(-c2cccc3[nH]ccc23)[nH]c(C(=O)O)c1-c1cccc(C)c1 [compound 99],50 to 100
15,CCc1c(-c2cccc3[nH]ccc23)[nH]c(C(=O)O)c1-c1cccc2c1ccn2CCO [compound 77],20 to 50
16,O=C(O)c1ccc(-c2cccc(O)c2)[nH]1 [compound 156],> 100
17,CCc1c(-c2cccc3[nH]ccc23)[nH]c(C(=O)O)c1C1CCCCC1 [compound 102],> 100
18,COc1cc(-c2c(C(=O)O)[nH]c(-c3cc(F)cc4[nH]ccc34)c2C(C)C)c2ccn(CC(=O)O)c2c1 [compound 46],< 20
19,CC(C)c1c(-c2cc(F)cc3[nH]ccc23)[nH]c(CS(C)(=O)=O)c1-c1cccc2[nH]ccc12 [compound 220],< 20
20,Cc1cc(C(=O)O)[nH]c1-c1cccc2c1ccn2C [compound 116],> 100
21,CCc1c(-c2cccc3[nH]ccc23)[nH]c(C(=O)O)c1-c1ccc(O)cc1Cl [compound 92],50 to 100
22,CCc1c(-c2cccc3[nH]ccc23)[nH]c(C(=O)O)c1-c1cnccc1Cl [compound 94],50 to 100
23,CC(C)c1c(-c2cc(F)cc3[nH]ccc23)[nH]c(C(=O)O)c1-c1cc(C(F)(F)F)cc2c1ccn2CC(=O)O [compound 54],< 20
24,CC(C)c1c(-c2cc(F)cc3[nH]ccc23)[nH]c(C(=O)O)c1-c1cccc2[nH]c3c(c12)CCC3 [compound 212],< 20
25,C#CCOCCOCCOCCC(=O)NCCc1c[nH]c2cc(F)cc(-c3[nH]c(C(=O)O)c(-c4c(Cl)ccc5[nH]ccc45)c3C(C)C)c12 [compound 69],< 20
26,CC(C)c1c(-c2cc(F)cc3[nH]ccc23)[nH]c(C(=O)O)c1-c1ccnc2[nH]c(C3=CCN(S(=O)(=O)N(C)C)CC3)cc12 [compound 257],< 20

row,SMILES,Kd [µM]
1,CCc1cccc(-c2ccc(C(=O)O)[nH]2)c1 [compound 129],> 100
2,CCc1c(-c2cccc3c2ccn3CCO)[nH]c(C(=O)O)c1-c1ccc(OC)cc1Cl [COMPOUND 103],> 100
3,COc1ccc(-c2ccc(C(=O)O)[nH]2)cc1 [compound 157],> 100
4,"CC(C)c1c(-c2cc(F)cc3[nH]ccc23)[nH]c(C(=O)O)c1-c1c[nH]c2ccccc12 [compound 203, 5-(6-fluoro-1H-indol-4-yl)-3-(1H-indol-3-yl)-4-isopropyl-1H-pyrrole-2-carboxylic acid]",< 20
5,CCc1c(-c2c(C)ccc3[nH]ccc23)[nH]c(C(=O)O)c1-c1c(Cl)ccc2[nH]ccc12 [compound 6],< 20
6,CC(C)c1c(-c2cc(F)cc3[nH]ccc23)[nH]c(C(=O)O)c1-c1cccc2[nH]c(-c3ccccc3)cc12 [compound 259],< 20
7,CCc1c(-c2cccc3[nH]ccc23)[nH]c(C(=O)O)c1-c1ccccc1C(F)(F)F [compound 82],20 to 50
8,COc1ccc(-c2c(C(=O)O)[nH]c(-c3cc(F)cc4[nH]ccc34)c2C(C)C)c2cc[nH]c12 [compound 37],< 20
9,CCc1c(-c2cccc3[nH]ccc23)[nH]c(C(=O)O)c1-c1c(Cl)ccc2[nH]ccc12 [compound 16],< 20
10,CC(C)c1c(-c2cc(F)cc3[nH]ccc23)[nH]c(C(N)=O)c1-c1cccc2[nH]c(C(=O)O)cc12 [compound 191],< 20
11,CC(C)c1c(-c2cc(F)cc3[nH]ccc23)[nH]c(C(=O)O)c1-c1cccc2[nH]c3c(c12)CCCC3=O [compound 211],< 20
12,CCc1c[nH]c2cc(OC)cc(-c3c(C(=O)O)[nH]c(-c4cc(F)cc5[nH]ccc45)c3C(C)C)c12 [compound 186],< 20
13,CCn1ccc2c(-c3ccc(C(=O)O)[nH]3)cccc21 [compound 122],> 100
14,CC(C)c1c(-c2cc(F)cc3[nH]ccc23)[nH]c(C(=O)O)c1-c1cccc2[nH]ccc12 [compound 35],< 20
15,CC(C)c1c(-c2cc(F)cc3[nH]ccc23)[nH]c(C(=O)O)c1-c1cc(C(=O)NCc2nccs2)cc2[nH]ccc12 [compound 200],< 20
16,Cc1cc(C(=O)O)[nH]c1-c1cccc2[nH]ccc12 [compound 121],> 100
17,CC(C)c1c(-c2cc(F)cc3[nH]ccc23)[nH]c(C(=O)O)c1-c1cccc2[nH]c(C(=O)NCc3nccs3)cc12 [compound 262],< 20
18,CC(C)c1c(-c2cc(F)cc3[nH]ccc23)[nH]c(C(=O)O)c1-c1cccc2[nH]c(-c3cc[nH]n3)cc12 [compound 258],< 20
19,CCc1c(-c2cccc3[nH]ccc23)[nH]c(C(=O)O)c1-c1ccc(OC)cc1 [compound 87],20 to 50
20,CCc1c(-c2cccc3[nH]ccc23)[nH]c(C(=O)O)c1-c1ccc([N+](=O)[O-])cc1 [compound 114],> 100
21,COc1cc(-c2c(C(=O)O)[nH]c(-c3cc(F)cc4[nH]ccc34)c2C(C)C)c2cc(CO)[nH]c2c1 [compound 192],< 20
22,CC(C)CCc1c[nH]c2cccc(-c3c(C(=O)O)[nH]c(-c4cc(F)cc5[nH]ccc45)c3C(C)C)c12 [compound 188],< 20
23,CCc1c(-c2cccc3[nH]ccc23)[nH]c(C(=O)O)c1-c1ccccc1Cl [compound 65],< 20
24,CCc1cc(-c2[nH]c(C(=O)O)c(-c3c(Cl)ccc4[nH]ccc34)c2C(C)C)c2cc[nH]c2c1 [compound 9],< 20
25,COc1ccc(-c2c(C(=O)O)[nH]c(-c3cc(F)cc4[nH]ccc34)c2C(C)C)c(C)c1 [compound 59],< 20

# Test system: TEX cells
# Assay: Differentiation and CD34 marker of TEX cells
# Format: cell-based
# Conditions: FIG. 4
# Method: FIGS. 4A-F. COMPOUND 1 inhibits PRC1 in TEX cells. FIG. 4A. Inhibition of H2Aub in TEX cells. FIG. 4B. Differentiation of TEX cells upon treatment with COMPOUND 1. […] FIG. 4C. GSEA analysis of TEX cells showing revers of stem cell signature. FIG. 4D. […] FIG. 4E. Gene expression changes upon treatment with COMPOUND 1. FIG. 4F.
# Experiments were conducted during development of embodiments herein to develop small molecule inhibitors of PRC1 by targeting the Ring1B-BMI1 E3 ligase. These compounds bind directly to Ring1B-Bmi1 with low-micromolar affinity and inhibit PRC1 in vitro and in cells. […] Experiments were conducted during development of embodiments herein to test COMPOUND 1 in leukemia stem cell models represented by TEX cells (Ref. 22; herein incorporated by reference in its entirety) and M9-ENL1 cells (Ref. 23; herein incorporated by reference in its entirety). […] In some embodiments, COMPOUND 1 and COMPOUND 1 analogs are find use as agents in targeting leukemia and other cancer stem cells.
row,SMILES,differentiation of TEX cells
1,CCc1c(-c2cccc3c2ccn3CCO)[nH]c(C(=O)O)c1-c1ccc(OC)cc1Cl [COMPOUND 103],does not induce differentiation

# Source: patent US12466813B2, “PRC1 inhibitors and methods of treatment therewith” (The Regents of the University of Michigan, priority 2018, dated 2025)
